Measured values as given in patent publication US20230049231A1 (priority 2019, published 2023).

How the values were obtained:
hERG channel = molecular target: T1, hERG channel (Homo sapiens, UniProt Q12809); experiment: hERG electrophysiology, automated whole-cell patch clamp (Patchliner); type: cell-based
T1 construct: expressed in transfected cells
Summary of the method: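 Automated whole-cell patch clamp on CHO-K1 cells stably expressing hERG; 30 nM–100 μM applied cumulatively to the same cell, ≤0.3% DMSO. Pulses: −80 mV holding, +20 mV for 300 ms, −50 mV for 300 ms tail, 0.3 Hz, 70 per concentration. Last-pulse AUC and peak, normalized to control, were fitted to a Hill equation for IC50.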

Kv1.3 potassium channel = molecular target: T2, Kv1.3 potassium channel (Homo sapiens, UniProt P22001); experiment: Kv1.3 potassium channel blocker activity, automated whole-cell patch clamp (Patchliner); type: cell-based
T2 construct: expressed in transfected cells
T2 sequence (P22001 whole entry): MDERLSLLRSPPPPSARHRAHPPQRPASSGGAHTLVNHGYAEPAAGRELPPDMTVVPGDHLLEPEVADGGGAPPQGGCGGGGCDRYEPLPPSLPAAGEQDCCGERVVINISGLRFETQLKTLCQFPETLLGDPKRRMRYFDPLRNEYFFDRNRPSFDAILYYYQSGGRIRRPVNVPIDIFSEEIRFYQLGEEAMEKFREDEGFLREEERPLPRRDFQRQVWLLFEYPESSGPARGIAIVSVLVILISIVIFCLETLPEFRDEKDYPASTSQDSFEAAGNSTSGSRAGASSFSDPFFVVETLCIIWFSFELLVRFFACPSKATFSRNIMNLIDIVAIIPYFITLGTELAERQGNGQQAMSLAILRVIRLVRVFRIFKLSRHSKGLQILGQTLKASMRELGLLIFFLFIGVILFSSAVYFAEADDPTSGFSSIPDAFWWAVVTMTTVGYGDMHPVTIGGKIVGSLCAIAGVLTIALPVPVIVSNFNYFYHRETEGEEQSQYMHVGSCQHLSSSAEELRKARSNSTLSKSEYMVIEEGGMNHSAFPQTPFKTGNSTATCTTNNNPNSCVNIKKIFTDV
Summary of the method: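 IC50 came from Hill-equation fits of peak and AUC currents from the final pulse at each concentration, normalized to compound-free control. Compounds applied consecutively at 30 nM to 100 μM (up to 0.3% DMSO) to Kv1.3-expressing CHO-K1 cells, P/4 leak subtraction. Pulses were +40 mV, 100 ms, from −90 mV holding, at 0.1 Hz on Patchliner.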

[1] = hERG channel, whole-cell patch clamp
[2] = Kv1.3 potassium channel, whole-cell patch clamp
[3] = CHO-K1 cells stably expressing hERG, +20 mV 300 ms, -50 mV 300 ms tail current, 0.3 Hz
[4] = CHO-K1 cells stably expressing Kv1.3, 100 ms pulses from -90 mV to +40 mV, 0.1 Hz

T1 sequence (Q12809 whole entry): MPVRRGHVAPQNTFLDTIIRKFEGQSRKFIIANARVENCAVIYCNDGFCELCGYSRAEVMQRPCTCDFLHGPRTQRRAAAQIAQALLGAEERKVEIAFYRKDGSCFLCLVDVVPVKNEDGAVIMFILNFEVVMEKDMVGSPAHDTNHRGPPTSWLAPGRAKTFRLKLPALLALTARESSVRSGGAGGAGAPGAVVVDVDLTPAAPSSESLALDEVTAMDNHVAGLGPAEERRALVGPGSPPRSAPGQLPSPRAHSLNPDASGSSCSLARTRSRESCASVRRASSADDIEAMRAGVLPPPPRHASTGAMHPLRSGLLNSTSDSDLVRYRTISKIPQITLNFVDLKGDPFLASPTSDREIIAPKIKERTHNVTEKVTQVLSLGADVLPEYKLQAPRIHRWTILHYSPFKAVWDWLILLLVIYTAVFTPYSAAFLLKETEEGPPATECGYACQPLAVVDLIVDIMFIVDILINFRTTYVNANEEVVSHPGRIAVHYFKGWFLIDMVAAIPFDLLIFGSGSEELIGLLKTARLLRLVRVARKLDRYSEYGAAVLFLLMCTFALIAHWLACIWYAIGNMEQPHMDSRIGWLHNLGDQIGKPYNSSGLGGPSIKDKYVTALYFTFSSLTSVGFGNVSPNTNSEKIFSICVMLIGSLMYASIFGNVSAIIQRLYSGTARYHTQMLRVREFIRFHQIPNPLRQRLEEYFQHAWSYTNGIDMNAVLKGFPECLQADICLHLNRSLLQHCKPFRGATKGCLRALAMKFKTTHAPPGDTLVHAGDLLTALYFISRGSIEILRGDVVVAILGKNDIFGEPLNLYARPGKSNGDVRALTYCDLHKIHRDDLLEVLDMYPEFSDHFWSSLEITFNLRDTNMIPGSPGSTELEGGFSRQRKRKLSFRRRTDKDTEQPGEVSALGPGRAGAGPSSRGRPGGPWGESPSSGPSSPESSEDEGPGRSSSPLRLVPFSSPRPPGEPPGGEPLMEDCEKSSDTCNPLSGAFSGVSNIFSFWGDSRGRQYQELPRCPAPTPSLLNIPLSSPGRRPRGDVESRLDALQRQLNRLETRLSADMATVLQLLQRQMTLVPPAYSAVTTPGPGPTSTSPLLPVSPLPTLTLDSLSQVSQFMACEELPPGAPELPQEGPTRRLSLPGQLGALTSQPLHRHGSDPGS

Structure (SMILES)	IC50 (Kv1.3 potassium channel; [2]) [µM]	IC50 (Kv1.3 potassium channel; [4]) [µM]	IC50 (hERG channel; [1]) [µM]	IC50 (hERG channel; [3]) [µM]
CN(C)CC(=O)N1CC(=O)N2CC[C@@H](c3c(O)ccc(Cl)c3Cl)C[C@H]2C1 [Compound 40, (8R,9aS)-8-(2,3-dichloro-6-hydroxyphenyl)-2-[2-(dimethylamino)acetyl]-hexahydro-1H-pyrido[1,2-a]pyrazin-4-one]	–	< 1	–	< 30
O=C1C[C@H](NCCO)C[C@@H]2C[C@H](c3c(O)ccc(Cl)c3Cl)CN12 (single isomer, unassigned) [Compound 203]	< 1	–	> 30	–
O=C1CN(c2ncn[nH]2)C[C@@H]2C[C@H](c3c(O)ccc(Cl)c3Cl)CN12 [Compound 175, (7R,8aS)-7-(2,3-dichloro-6-hydroxyphenyl)-2-(1H-1,2,4-triazol-5-yl)hexahydropyrrolo[1,2-a]pyrazin-4(1H)-one]	< 1	–	> 30	–
O=C1O[C@@H]([C@@H](O)CO)[C@@H]2C[C@H](c3c(O)ccc(Cl)c3Cl)CN12 (single isomer, unassigned) [Compound 260]	< 1	–	> 30	–
O=C(N1CC(CO)C1)N1CC(=O)N2C[C@@H](c3c(O)ccc(Cl)c3Cl)C[C@H]2C1 [Compound 103, (7R,8aS)-7-(2,3-dichloro-6-hydroxypheny1)-2-[3-(hydroxymethyl)azetidine-1-carbonyl]-hexahydropyrro[1,2-a]pyrazine-4-one]	< 1	–	> 30	–
C[C@@H](C1CNC1)N1CC(=O)N2C[C@@H](c3c(O)ccc(Cl)c3Cl)C[C@H]2C1 (single isomer, unassigned) [Compound 137]	< 1	–	> 30	–
C[C@@H]1CN(C(=O)CO)C[C@@H]2C[C@H](c3c(O)ccc(Cl)c3Cl)CN2C1=O (single isomer, unassigned; isomer 1) [Compound 91]	< 1	–	> 30	–
O=C1CN(C2CC(O)C2)C[C@@H]2C[C@H](c3c(O)ccc(Cl)c3Cl)CN12 (stereo partly drawn) [Compound 123, (7R,8aS)-7-(2,3-dichloro-6-hydroxyphenyl)-2-(3-hydroxycyclobutyl)-hexahydropyrrolo[1,2-a]pyrazin-4-one]	< 1	–	> 30	–
CN[C@@H]1CC(=O)N2C[C@@H](c3c(O)ccc(Cl)c3Cl)C[C@H]2C1 (single isomer, unassigned) [Compound 198]	< 1	–	> 30	–
O=C([C@H](O)CO)N1CC(=O)N2C[C@@H](c3c(O)ccc(Cl)c3Cl)C[C@H]2C1 [Compound 42, (7R,8aS)-7-(2,3-dichloro-6-hydroxyphenyl)-2-((R)-2,3-dihydroxypropanoyl) hexahydropyrrolo[1,2-a]pyrazin-4(1H)-one]	–	< 1	–	> 30
O=C1C[C@H](c2cn[nH]c2)C[C@@H]2C[C@H](c3c(O)ccc(Cl)c3Cl)CN12 (single isomer, unassigned) [Compound 216]	< 1	–	< 10	–
CO[C@H](CO)C(=O)N1CC(=O)N2CC[C@@H](c3c(O)ccc(Cl)c3Cl)C[C@H]2C1 [Compound 29, (8R,9aS)-8-(2,3-dichloro-6-hydroxyphenyl)-2-[(2R)-3-hydroxy-2-methoxypropanoyl]-hexahydro-1H-pyrido[1,2-a]pyrazin-4-one]	–	< 1	–	> 30
CN[C@H]1CC(=O)N2C[C@@H](c3c(O)ccc(Cl)c3Cl)C[C@H]2C1 (single isomer, unassigned) [Compound 199]	< 1	–	> 30	–
C[C@@H](CO)C(=O)N1CC(=O)N2CC[C@@H](c3c(O)ccc(Cl)c3Cl)C[C@H]2C1 [Compound 45, (8R,9aS)-8-(2,3-dichloro-6-hydroxyphenyl)-2-((S)-3-hydroxy-2-methylpropanoyl)octahydro-4H-pyrido[1,2-a]pyrazin-4-one]	–	< 1	–	> 30
C[C@@H](O)[C@@H](CO)N1CC(=O)N2C[C@@H](c3c(O)ccc(Cl)c3Cl)C[C@H]2C1 (relative stereo) [Compound 166, (7R,8aS)-7-(2,3-dichloro-6-hydroxyphenyl)-2-[(2R,3R)-rel-1,3-dihydroxybutan-2-yl]-hexahydropyrrolo[1,2-a]pyrazin-4-one]	< 1	–	> 30	–
CNC(=O)N1CC(=O)N2C[C@@H](c3c(O)ccc(Cl)c3Cl)C[C@H]2C1 [Compound 37, (7R,8aS)-7-(2,3-dichloro-6-hydroxyphenyl)-N-methyl-4-oxo-hexahydropyrrolo[1,2-a]pyrazine-2-carboxamide]	–	< 1	–	> 30
COC[C@@H](O)C(=O)N1CC(=O)N2CC[C@@H](c3c(O)ccc(Cl)c3Cl)C[C@H]2C1 [Compound 4, (8R,9aS)-8-(2,3-dichloro-6-hydroxyphenyl)-2-[(2R)-2-hydroxy-3-methoxypropanoyl]-hexahydro-1H-pyrido[1,2-a]pyrazin-4-one]	–	< 1	–	> 30
O=C(N1CC(O)C1)N1CC(=O)N2C[C@@H](c3c(O)ccc(Cl)c3Cl)C[C@H]2C1 [Compound 47, (7R,8aS)-7-(2,3-dichloro-6-hydroxypheny1)-2-(3-hydroxyazetidine-1-carbonyl)-hexahydropyrrolo[1,2-a]pyrazin-4-one]	–	< 1	–	> 30
O=C1O[C@H](CN2CC(O)C2)[C@@H]2C[C@H](c3c(O)ccc(Cl)c3Cl)CN12 (single isomer, unassigned) [Compound 283]	< 1	–	> 30	–
O=C1CN(C(CO)CO)C[C@@H]2C[C@H](c3c(O)ccc(Cl)c3Cl)CN12 [Compound 124, (7R,8aS)-7-(2,3-dichloro-6-hydroxyphenyl)-2-(1,3-dihydroxypropan-2-yl)-hexahydropyrrolo [1,2-a]pyrazin-4-one]	< 1	–	> 30	–
O=C1CN(C(=O)[C@H]2C[C@H](O)C2)C[C@@H]2C[C@H](c3c(O)ccc(Cl)c3Cl)CN12 (single isomer, unassigned; isomer 1) [Compound 27]	–	< 1	–	> 30
O=C(NC[C@@H]1OC(=O)N2C[C@@H](c3c(O)ccc(Cl)c3Cl)C[C@@H]12)C1CNC1 (single isomer, unassigned) [Compound 277]	< 1	–	> 30	–
O=C1CN(c2cc(CO)ccn2)C[C@@H]2C[C@H](c3c(O)ccc(Cl)c3Cl)CN12 [Compound 173]	< 1	–	< 30	–

More lines, main results first:

IC50 (Kv1.3 potassium channel; [2]) [µM]	IC50 (Kv1.3 potassium channel; [4]) [µM]	Structure (SMILES)	IC50 (hERG channel; [1]) [µM]	IC50 (hERG channel; [3]) [µM]
< 1	–	CN(CCO)[C@H]1CC(=O)N2C[C@@H](c3c(O)ccc(Cl)c3Cl)C[C@H]2C1 (single isomer, unassigned) [Compound 205]	> 30	–
–	< 1	O=C1C[C@H](O)C[C@@H]2C[C@H](c3c(O)ccc(Cl)c3Cl)CN12 (single isomer, unassigned; isomer 2) [Compound 62]	–	> 30
< 1	–	CNC(=O)C1CC(=O)N2C[C@@H](c3c(O)ccc(Cl)c3Cl)C[C@H]2C1 (stereo partly drawn) [Compound 232, (2R,8aS)-2-(2,3-dichloro-6-hydroxyphenyl)-N-methyl-5-oxo-hexahydro-1H-indolizine-7-carboxamide]	> 30	–
< 1	–	CNC[C@@H]1CC(=O)N2C[C@@H](c3c(O)ccc(Cl)c3Cl)C[C@H]2C1 (single isomer, unassigned) [Compound 239]	> 30	–
< 1	–	O=C1CN([C@H]2COC[C@@H]2O)C[C@@H]2C[C@H](c3c(O)ccc(Cl)c3Cl)CN12 (relative stereo) [Compound 154, (7R,8aS)-7-(2,3-dichloro-6-hydroxyphenyl)-2-[(3S,4R)-rel-4-hydroxyoxolan-3-yl]-hexahydropyrrolo [1,2-a]pyrazin-4-one]	> 30	–
< 1	–	O=C1C[C@@H](N2CC[C@H](O)C2)C[C@@H]2C[C@H](c3c(O)ccc(Cl)c3Cl)CN12 (single isomer, unassigned) [Compound 194]	> 30	–
< 1	–	O=C1CC(O)(CO)C[C@@H]2C[C@H](c3c(O)ccc(Cl)c3Cl)CN12 (stereo partly drawn) [Compound 220, (2R,8aS)-2-(2,3-dichloro-6-hydroxyphenyl)-7-hydroxy-7-(hydroxymethyl)-hexahydroindolizin-5-one]	> 30	–
< 1	–	C[C@@H]1NC[C@@H]2C[C@H](c3c(O)ccc(Cl)c3Cl)CN2C1=O [Compound 85, (3S,7R,8aS)-7-(2,3-dichloro-6-hydroxyphenyl)-3-methyl-hexahydro-1H-pyrrolo[1,2-a]pyrazin-4-one]	< 30	–
< 1	–	CC1(O)CN(C(=O)N2CC(=O)N3C[C@@H](c4c(O)ccc(Cl)c4Cl)C[C@H]3C2)C1 [Compound 100, (7R,8aS)-7-(2,3-dichloro-6-hydroxyphenyl)-2-(3-hydroxy-3-methylazetidine-1-carbonyl)-hexahydropyrro[1,2-a]pyrazine-4-one]	> 30	–
< 1	–	NC(=O)[C@H]1OC(=O)N2C[C@@H](c3c(O)ccc(Cl)c3Cl)C[C@@H]12 (single isomer, unassigned) [Compound 287]	> 30	–
< 1	–	NC[C@H]1OC(=O)N2C[C@@H](c3c(O)ccc(Cl)c3Cl)C[C@@H]12 (single isomer, unassigned) [Compound 273]	> 30	–
< 1	–	Nc1ccnc(N2CC(=O)N3C[C@@H](c4c(O)ccc(Cl)c4Cl)C[C@H]3C2)c1 [Compound 171, (7R,8aS)-2-(4-aminopyridin-2-yl)-7-(2,3-dichloro-6-hydroxyphenyl)-hexahydropyrrolo[1,2-a]pyrazin-4-one]	< 10	–
